pIC50: −log10 of the molar value. Calls of active or inactive are those of the source. The rule behind the calls is not given here.
Assays:
MCF7 [1] = assay: Cytotoxicity against human MCF7 cells assessed as reduction in cell viability incubated for 48 hrs with compound prepared under 365 nm UV light condition for 1 hrs by CellTIter blue reagent based fluorescence plate reader analysis
HeLa [2] = assay: Cytotoxicity against human HeLa cells assessed as reduction in cell viability incubated for 48 hrs with compound prepared under 365 nm UV light condition for 1 hrs by CellTIter blue reagent based fluorescence plate reader analysis
[3] = Half-life of compound under dark condition measured for 150 hrs at 6 hrs interval by UV-spectroscopy; format: physicochemical
[4] = biological target: Proteasome Macropain subunit (Homo sapiens) (UniProt P49721); assay: Inhibition of human 20S proteosome beta2 subunit using Bz-VGR-AMC as substrate preincubated for 30 mins with compound prepared under 365 nm UV light condition for 1 hrs followed by substrate addition and measured after 12 hrs by fluorescence plate reader analysis; conditions: time 12.5 hrs
Chain of Proteasome Macropain subunit (Homo sapiens) (P49721 whole entry): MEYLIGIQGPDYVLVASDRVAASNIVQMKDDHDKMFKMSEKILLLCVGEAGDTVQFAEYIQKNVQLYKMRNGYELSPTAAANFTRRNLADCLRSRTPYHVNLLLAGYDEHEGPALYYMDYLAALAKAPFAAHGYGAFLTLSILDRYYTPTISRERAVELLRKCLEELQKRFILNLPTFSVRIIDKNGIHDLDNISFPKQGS

[5] = biological target: T1, Proteasome component C5 (Homo sapiens) (UniProt P20618); assay: Inhibition of human 20S proteosome beta1 subunit using […] as substrate preincubated for 30 mins with compound prepared under 365 nm UV light condition for 1 hrs followed by substrate addition and measured after 12 hrs by fluorescence plate reader analysis; conditions: time 12.5 hrs
T1 sequence (whole entry): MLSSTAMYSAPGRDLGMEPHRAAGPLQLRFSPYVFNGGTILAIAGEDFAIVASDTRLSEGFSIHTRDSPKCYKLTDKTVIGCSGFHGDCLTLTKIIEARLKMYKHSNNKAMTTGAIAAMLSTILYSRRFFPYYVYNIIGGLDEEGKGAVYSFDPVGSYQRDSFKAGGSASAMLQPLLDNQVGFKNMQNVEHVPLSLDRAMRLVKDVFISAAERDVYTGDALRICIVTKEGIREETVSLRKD

A549 [6] = assay: Cytotoxicity against human A549 cells assessed as reduction in cell viability incubated for 48 hrs with compound prepared under 365 nm UV light condition for 1 hrs by CellTIter blue reagent based fluorescence plate reader analysis
[7] = biological target: Proteasome Macropain subunit (Homo sapiens) (UniProt P49721); assay: Inhibition of human 20S proteosome beta2 subunit using Bz-VGR-AMC as substrate preincubated for 30 mins with compound prepared under dark condition followed by substrate addition and measured after 12 hrs by fluorescence plate reader analysis; conditions: time 12.5 hrs
MCF7 [8] = assay: Cytotoxicity against human MCF7 cells assessed as reduction in cell viability incubated for 48 hrs with compound prepared under dark condition by CellTIter blue reagent based fluorescence plate reader analysis; format: functional; conditions: MCF7, 48 h
A549 [9] = assay: Cytotoxicity against human A549 cells assessed as reduction in cell viability incubated for 48 hrs with compound prepared under dark condition by CellTIter blue reagent based fluorescence plate reader analysis; format: functional; conditions: A549, 48 h
HeLa [10] = assay: Cytotoxicity against human HeLa cells assessed as reduction in cell viability incubated for 48 hrs with compound prepared under dark condition by CellTIter blue reagent based fluorescence plate reader analysis
[11] = biological target: T1, Proteasome component C5 (Homo sapiens); assay: Inhibition of human 20S proteosome beta1 subunit using […] as substrate preincubated for 30 mins with compound prepared under dark condition followed by substrate addition and measured after 12 hrs by fluorescence plate reader analysis; conditions: time 12.5 hrs
[12] = Retention time of compound by HPLC analysis; format: physicochemical
[13] = Potency index, ratio of E-enrichment isomer IC50 to test compound (Z-enrichment isomer) IC50 for cytotoxicity against human HeLa cells assessed as reduction in c ell viability incubated for 48 hrs by CellTiter blue reagent based fluorescence plate reader analysis; format: functional
[14] = Potency index, ratio of E-enrichment isomer IC50 to test compound (Z-enrichment isomer) IC50 for cytotoxicity against human MCF7 cells assessed as reduction in c ell viability incubated for 48 hrs by CellTiter blue reagent based fluorescence plate reader analysis; format: functional
[15] = Potency index, ratio of E-enrichment isomer IC50 to test compound (Z-enrichment isomer) IC50 for cytotoxicity against human A549 cells assessed as reduction in c ell viability incubated for 48 hrs by CellTiter blue reagent based fluorescence plate reader analysis; format: functional

## Cc1cc(C)cc(N=Nc2cccc(C(=O)N[C@@H](Cc3ccccc3)C(=O)N[C@@H](CC(C)C)C(=O)N[C@H](C=CS(C)(=O)=O)CC(C)C)c2)c1
MCF7 [1]
  pIC50: 5.12
HeLa [2]
  pIC50: 6.49
[3]
  half-life: > 100 h
[4]
  inhibition: inactive
[5]
  inhibition: inactive
A549 [6]
  pIC50: 5.72

## Cc1cc(C)cc(/N=N/c2cccc(C(=O)N[C@H](C(=O)N[C@@H](Cc3ccccc3)C(=O)N[C@H](/C=C/S(C)(=O)=O)CC(C)C)C(C)C)c2)c1
[7]
  inhibition: inactive
MCF7 [8]
  pIC50: 4.31
A549 [9]
  pIC50: 4.34
HeLa [10]
  pIC50: 5.02
[11]
  inhibition: inactive

## Cc1cc(C)cc(/N=N/c2cccc(C(=O)N[C@@H](Cc3c[nH]c4ccccc34)C(=O)N[C@@H](CC(C)C)C(=O)N[C@H](/C=C/S(C)(=O)=O)CC(C)C)c2)c1
[7]
  inhibition: inactive
MCF7 [8]
  pIC50: 4.98
A549 [9]
  pIC50: 5.70
HeLa [10]
  pIC50: 6.55
[11]
  inhibition: inactive

## CC(C)CC(NC(=O)[C@H](Cc1ccccc1)NC(=O)c1ccc(/N=N\c2ccccc2)cc1)B(O)O (some centres not stated)
MCF7 [1]
  pIC50: 5.17
A549 [6]
  pIC50: 4.76

## Cc1cc(C)cc(/N=N\c2cccc(C(=O)N[C@H](C(=O)N[C@@H](Cc3ccccc3)C(=O)N[C@H](/C=C/S(C)(=O)=O)CC(C)C)C(C)C)c2)c1
MCF7 [1]
  pIC50: 5.65
HeLa [2]
  pIC50: 5.54
[3]
  half-life: > 100 h
[4]
  inhibition: inactive
[5]
  inhibition: inactive
A549 [6]
  pIC50: 5.16

## CC(C)C[C@H](NC(=O)[C@H](Cc1ccc(/N=N/c2ccccc2)cc1)NC(=O)OC(C)(C)C)B1OC2C[C@@H]3C[C@@H](C3(C)C)[C@@]2(C)O1 (some centres not stated)
MCF7 [8]
  pIC50: 4.40
A549 [9]
  pIC50: 4.28
HeLa [10]
  pIC50: 4.42

## Cc1cc(C)cc(/N=N/c2cccc(C(=O)N[C@@H](Cc3ccccc3)C(=O)N[C@@H](CC(C)C)C(=O)N[C@H](/C=C/S(C)(=O)=O)CC(C)C)c2)c1
[7]
  inhibition: inactive
MCF7 [8]
  pIC50: 4.45
A549 [9]
  pIC50: 5.59
HeLa [10]
  pIC50: 5.91
[11]
  inhibition: inactive

## Cc1cc(C)cc(/N=N\c2cccc(C(=O)N[C@@H](CC(C)C)C(=O)N[C@@H](CC(C)C)C(=O)N[C@H](/C=C/S(C)(=O)=O)CC(C)C)c2)c1
MCF7 [1]
  pIC50: 5.36
HeLa [2]
  pIC50: 6.55
[3]
  half-life: > 100 h
[4]
  inhibition: inactive
[12]
  Retention_time: 13.5 min
[5]
  inhibition: inactive
A549 [6]
  pIC50: 6.14

## Cc1cc(C)cc(/N=N\c2cccc(C(=O)N[C@@H](Cc3c[nH]c4ccccc34)C(=O)N[C@@H](CC(C)C)C(=O)N[C@H](/C=C/S(C)(=O)=O)CC(C)C)c2)c1
MCF7 [1]
  pIC50: 5.26
HeLa [2]
  pIC50: 6.60
[3]
  half-life: > 100 h
[4]
  inhibition: inactive
[5]
  inhibition: inactive
A549 [6]
  pIC50: 6.38

## CC(C)C[C@H](NC(=O)[C@H](Cc1ccc(/N=N\c2ccccc2)cc1)NC(=O)OC(C)(C)C)B1OC2C[C@@H]3C[C@@H](C3(C)C)[C@@]2(C)O1 (some centres not stated)
[13]
  Ratio IC50: 1
MCF7 [1]
  pIC50: 4.55
HeLa [2]
  pIC50: 4.42
[14]
  Ratio IC50: 1.4
[15]
  Ratio IC50: 0.79
A549 [6]
  pIC50: 4.18

## Cc1cc(C)cc(/N=N/c2cccc(C(=O)N[C@@H](CC(C)C)C(=O)N[C@@H](CC(C)C)C(=O)N[C@H](/C=C/S(C)(=O)=O)CC(C)C)c2)c1
[7]
  inhibition: inactive
MCF7 [8]
  pIC50: 5.08
A549 [9]
  pIC50: 5.59
[12]
  Retention_time: 11.1 min
HeLa [10]
  pIC50: 6.38
[11]
  inhibition: inactive
